Measured values from US20170028005A1, “NATURAL SWEETENER” (NATGOOD IP, LLC, priority 2014, published 2017).

Tests used:
blood glucose response [1] = assay: A Glycemic Response Test; type: in vivo; conditions: 30 grams in water after fast; blood glucose every 15 minutes for 90 minutes
Description: Under an Institutional Review Board approved, controlled clinical trial, subjects undergo a pre-test fast for at least 20 hours and then consume 30 grams of glucose, or an equal amount of sweetener in water. Blood glucose measurements are then made every 15 minutes for 90 minutes and the blood glucose response is recorded. A sweetener is considered to pass the test when then blood glucose response is less than 5% of glucose.

blood glucose response [2] = assay: A Repression Test; type: in vivo; parameters: key: PASS: pass the repression test when then blood glucose response is much lower than expected for the combination of; conditions: product (e.g. cupcake) with other nutritive carbohydrates
Description: Under controlled study scenario subjects fast, then consume a product (e.g. a cupcake) that contains other nutritive carbohydrates and the glycemic response is assessed by established methods. The glycemic response to the nutritive carbohydrates is compared to the glycemic response to the nutritive carbohydrates in the presence of the sweetener or sugar.

blood glucose level [3] = conditions: values used for the expected GI; cited from earlier work
The Caramelization Test = type: physicochemical; conditions: 1 cup sweetener with 1/2 cup water until it browns
Excerpt: 1 cup of caramelized sugar or 1 cup of sweetener is mixed with ½ cup of water and swirled to mix until it browns. A sweetener is considered to pass the test and be enough like sugar when it browns within 25% of the time when the sugar browns.

blood glucose level [4] = assay: Glycemic index (GI) of NSC formulations (Example 2); type: in vivo, human
Description: Glycemic index can be measured by any suitable methodology. For example, to determine a food's GI value, measured portions of the food containing 50 grams of available carbohydrate (or 25 grams of available carbohydrate for foods that contain lower amounts of carbohydrate) may be fed to 10 healthy people after an overnight fast. Finger-prick blood samples can be taken at 15-30 minute intervals over the next two hours. These blood samples can be used to construct a blood sugar response curve for the two hour period. The incremental area under the curve (iAUC) is calculated to reflect the total rise in blood glucose levels after eating the test food. The GI value is calculated by dividing the iAUC for the test food by the iAUC for the reference food (same amount of glucose) and multiplying by 100. The average of the GI ratings from all ten subjects is designated as the GI for that food. […] The effect on the GI response for different NSC formulations was assessed. Four formulations, designated F1-F4, containing tagatose, monkfruit, stevia extract, erythritol, xanthan gum and either maltitol or lactitol were prepared as indicated in Table 1. The glycemic index for each formulation was calculated based on the glycemic index for the individual components taking into account the weight percent of the component in the formulation. Monkfruit, xanthan gum, and stevia extract have a glycemic index of 0, erythritol has a glycemic index of 1 while tagatose has a glycemic index of 3. Maltitol has a glycemic index of 35 while lactitol has a glycemic index of 5. Fifteen subjects were evaluated and the GI calculated as described previously herein.

[5] = Acute randomized controlled trial: adverse events symptom score; type: in vivo, human
Description: An acute randomized controlled trial was carried out to investigate the effects of an NSC of the type disclosed herein on postprandial insulin, glucose and fructose responses.
Subjects (N=15) men and non-pregnant, non-lactating women, 18-75 years of age each with a BMI of 18-40 kg/m^2 inclusive and normal glycemia and (i) fasting serum glucose <126 mg/dl (<7.0 mmol/l) (or in whole blood ≦6.1 mmol/L); (ii) blood pressure <130/85; (iii) no prescription drugs within 1 month of the first study visit after screening except for the birth control pill, lipid lowering medications or small doses of anxiolytics/sedatives to assist sleeping; and (iv) no major illness or surgery requiring hospitalization within 3 months of the first study visit after screening.
The test foods consisted of 2 isovolumetric beverages: 30 g sucrose control and 30 g of sweetener blend dissolved in 500 ml water. The sucrose test meal acted as the control. Test meals were administered in a randomized order.
Adverse events reported following ingestion of the meals containing either an NSC of the type disclosed herein or sucrose included bloating, belching, nausea, diarrhea and flatulence. Each issue was scored and record for the time period indicated in Table 5 which provides the symptom score (mm) for: Bloating, Belching, Nausea, Diarrhea and Flatulence at 0 min, 120 min, before Dinner (D) and before breakfast (B).

Question: For `OC[C@@H](O)[C@@H](O)CO` [Erythritol, erythritol], which Glycemic test (blood glucose response [1]) is on record?
Answer: PASS (pass the test when then blood glucose response is less than 5% of glucose)

Question: And the Repression test (blood glucose response [2])?
Answer: FAIL

Question: What about the “glycemic index of individual component” value (blood glucose level [3]) of the same compound?
Answer: 1

Question: Which Glycemic test (blood glucose response [1]) does the source give for `O=C(CO)C(O)C(O)C(O)CO` (stereo not shown) [Allulose] here?
Answer: PASS (pass the test when then blood glucose response is less than 5% of glucose)

Question: What about the Repression test (blood glucose response [2]) of the same compound?
Answer: PASS

Question: With `OC[C@@H](O)[C@@H](O[C@H]1O[C@H](CO)[C@@H](O)[C@H](O)[C@H]1O)[C@H](O)[C@@H](O)CO` [Maltitol, maltitol] as the compound, how does the “glycemic index of individual component” value (blood glucose level [3]) read?
Answer: 35

Question: With `OC[C@@H](O)[C@@H](O[C@@H]1O[C@H](CO)[C@H](O)[C@H](O)[C@H]1O)[C@H](O)[C@@H](O)CO` [lactitol] as the compound, how does the “glycemic index of individual component” value (blood glucose level [3]) read?
Answer: 5

Question: With `O=C(CO)[C@@H](O)[C@@H](O)[C@H](O)CO` [Tagatose, (3S,4S,5R)-1,3,4,5,6-pentahydroxy-hexan-2-one] as the compound, how does the Caramelization test (The Caramelization Test) read?
Answer: FAIL-

Question: And the Glycemic test (blood glucose response [1])?
Answer: PASS (pass the test when then blood glucose response is less than 5% of glucose)

Question: What about the Repression test (blood glucose response [2]) of the same compound?
Answer: FAIL

Question: What about the “glycemic index of individual component” value (blood glucose level [3]) of the same compound?
Answer: 3

Question: Which “Expected GI” value (blood glucose level [4]; calculated from GI of individual components and their weight percent) does the source give for `OC[C@H]1O[C@@](CO)(O[C@H]2O[C@H](CO)[C@@H](O)[C@H](O)[C@H]2O)[C@@H](O)[C@@H]1O` [Sugar, sucrose] here?
Answer: 65

Question: What about the “Observed GI” value (blood glucose level [4]; fifteen subjects) of the same compound?
Answer: 65

Question: What about the “Glycemic Index” value (blood glucose level [4]; sweetener ingredient of the cake mix, Table 2) of the same compound?
Answer: 65 for sugar

Question: What about the Caramelization test (The Caramelization Test) of the same compound?
Answer: PASS (pass the test and be enough like sugar when it browns within 25% of the time when the sugar browns)

Question: What about the Glycemic test (blood glucose response [1]) of the same compound?
Answer: FAIL

Question: What about the Repression test (blood glucose response [2]) of the same compound?
Answer: FAIL

Question: And the Belching symptom score ([5]; 0 min)?
Answer: 0.60 mm

Question: What about the Bloating symptom score ([5]; 0 min) of the same compound?
Answer: 7.93 mm

Question: What about the Diarrhea symptom score ([5]; 0 min) of the same compound?
Answer: 0.27 mm

Question: And the Flatulence symptom score ([5]; 0 min)?
Answer: 1.47 mm

Question: What about the Nausea symptom score ([5]; 0 min) of the same compound?
Answer: 0.33 mm

Question: What about the Belching symptom score ([5]; 120 min) of the same compound?
Answer: 0.40 mm

Question: What about the Bloating symptom score ([5]; 120 min) of the same compound?
Answer: 4.67 mm

Question: And the Diarrhea symptom score ([5]; 120 min)?
Answer: 0.80 mm

Question: What about the Flatulence symptom score ([5]; 120 min) of the same compound?
Answer: 1.40 mm

Question: And the Nausea symptom score ([5]; 120 min)?
Answer: 1.87 mm

Question: What about the Belching symptom score ([5]; before Dinner (D)) of the same compound?
Answer: 1.79 mm

Question: And the Bloating symptom score ([5]; before Dinner (D))?
Answer: 5.43 mm

Question: What about the Diarrhea symptom score ([5]; before Dinner (D)) of the same compound?
Answer: 6.93 mm

Question: What about the Flatulence symptom score ([5]; before Dinner (D)) of the same compound?
Answer: 8.93 mm

Question: What about the Nausea symptom score ([5]; before Dinner (D)) of the same compound?
Answer: 2.57 mm

Question: What about the Belching symptom score ([5]; before breakfast (B)) of the same compound?
Answer: 0.57 mm

Question: And the Bloating symptom score ([5]; before breakfast (B))?
Answer: 5.71 mm

Question: And the Diarrhea symptom score ([5]; before breakfast (B))?
Answer: 5.79 mm

Question: What about the Flatulence symptom score ([5]; before breakfast (B)) of the same compound?
Answer: 7.50 mm

Question: And the Nausea symptom score ([5]; before breakfast (B))?
Answer: 0.57 mm
